This is an account of results in patent US11016062B2, “System and method of measuring cell viability and growth” (University of South Florida, priority 2015, dated 2021).

One assay relates to BT474-MCTs. The experiment in a line: Sensitivity of BT474 multi-cell tumoroids (MCTs, co-culture with ECs and CAFs) on PNS to lapatinib, PrestoBlue cell viability. Type of assay: cell-based. To be noted: Homo sapiens, BT-474, BT474-MCTs in the presence of ECs and CAFs on PNS, lapatinib 72 h. As for the experimental part: (§1) FIGS. 9A-C are a series of images depicting growth of BT474 derived SCTs (A) and MCTs (B) for 6 days on PNS; tumoroids are stained with calcein AM/EthD-1. Confocal (merged z-stacked) images showing presence of ECs (vWF, green cells), CAFs (SMA positive, red cells) and DAPI (cell nuclei) in BT474-MCTs imaged by confocal microscopy (merged z-stacked images). (C) Differential response of BT474-SCTs and -MCTs to lapatinib. On day 2 after co-culture, BT474 cells were treated with increasing concentrations (μM) of lapatinib for 72 h; cell viability was measured by PrestoBlue assay.
The inventors established conditions to co-culture tumor cells with ECs and CAFs to allow formation of robust MCTs. […] The presence of CAFs and ECs in the MCTs was confirmed by immunohistochemistry using anti-smooth muscle actin (SMA) and antivon Willebrand factor (vWF) antibodies for CAFs and ECs, respectively, followed by confocal microscopy (FIG. 9B). On day 5 after co-culture, CAFs were found dispersed throughout the MCT, whereas ECs were found mostly on the edge of the MCT.
The inventors examined sensitivity of BT474-SCTs and -MCTs to lapatinib. […]

The next assay has as its system BT474-SCTs. Kind of assay: Sensitivity of BT474 single cell-line tumoroids (SCTs) on PNS to lapatinib, PrestoBlue cell viability. Type of assay: cell-based. Particulars: Homo sapiens, BT-474, BT474-SCTs cultured on PNS, lapatinib 72 h. As for the experimental part:
as §1
The inventors examined sensitivity of BT474-SCTs and -MCTs to lapatinib. […] These include, IL-6, IL-8, vascular endothelial growth factor (VEGF), monocyte chemotactic protein 1 (MCP-1), platelet derived growth factor BB (PDGF-BB), dickkopf-1 (DKK-1, inhibitor of Wnt signaling pathway), osteoprotegerin (OPG, a negative regulator of bone remodeling) and MMP-3, which have been implicated in tumor metastasis, angiogenesis, cancer stem cell amplification or drug resistance. In addition, five tumoroid biomarkers that are found expressed abundantly in MCTs (vs SCTs) and can be considered as predictors of clinical efficacy for lapatinib, included, a) marker for cell proliferation: Ki67, and b) stromal derived factors: IL-6, MCP-1, VEGF and DKK-1 (FIG. 9D).

SMILES strings stand for the structures.

For the molecule `CS(=O)(=O)CCNCc1ccc(-c2ccc3ncnc(Nc4ccc(OCc5cccc(F)c5)c(Cl)c4)c3c2)o1` [lapatinib], the IC50 was over 10 µM in the assay on BT474-MCTs and under 2.5 µM with BT474-SCTs.

Usually IC50 stands for the midpoint of a concentration-inhibition curve.
